Results as given in US20260242391A1 (priority 2023, published 2026).

Assays:
HL-60 = HL-60 differentiation potency; assay type: cell-based; conditions: Homo sapiens
in vitro = conditions: human

Row | EC50 (HL-60) [µM] | IC50 (in vitro) [µM] | SMILES
1 | 9.73 | > 20 | C[C@H]1[C@@H](OCC(=O)N2C[C@@H]3CCC[C@@H]3[C@H]2C(=O)O)O[C@@H]2O[C@@]3(C)CC[C@H]4[C@H](C)CC[C@@H]1[C@@]24OO3 [Compound 191, (1S,3aR,6aS)-2-(2-(((3R,5aS,6R, 8aS,9R,10S,12R, 12aR)-3,6,9-trimethyldeca-hydro-12H-3,12-epoxy[1,2]dioxepino[4,3-i]isochromen-10-yl)oxy)acetyl) octahydrocyclo-penta[c]pyrrole-1-carboxlic acid]
2 | 8.04 | > 20 | C[C@H]1[C@@H](O[C@H]2CC[C@@H](OCC(=O)O)CC2)O[C@@H]2O[C@@]3(C)CC[C@H]4[C@H](C)CC[C@@H]1[C@@]24OO3 [Compound 224, 2-(((1R,4s)-4-(((3R,5aS,6R,8aS, 9R,10S,12R, 12aR)-3,6,9-trimethyldeca-hydro-12H-3,12-epoxy[1,2]dioxepino[4,3-i]isochromen-10-yl)oxy)cyclohexyl)oxy)acetic acid]
3 | 15.8 | > 20 | C[C@H]1[C@@H](OCC2CCC(C(=O)O)O2)O[C@@H]2O[C@@]3(C)CC[C@H]4[C@H](C)CC[C@@H]1[C@@]24OO3 (stereo partly drawn) [Compound 209, 5-((((3R,5aS,6R,8aS, 9R,10S,12R, 12aR)-3,6,9-trimethyldeca-hydro-12H-3,12-epoxy[1,2]dioxepino[4,3-i]isochromen-10-yl)oxy)methyl) tetrahydrofuran-2-carboxylic acid]
4 | 0.197 | > 20 | C[C@H]1[C@@H](OC[C@H]2CC[C@@H](C(=O)NC34CCC(C(=O)O)(C3)C4)CC2)O[C@@H]2O[C@@]3(C)CC[C@H]4[C@H](C)CC[C@@H]1[C@@]24OO3 [Compound 295, 4-((1R,4s)-4-((((3R,5aS,6R,8aS, 9R,10S,12R, 12aR)-3,6,9-trimethyldeca-hydro-12H-3,12-epoxy[1,2]dioxepino[4,3-i]isochromen-10-yl)oxy)methyl)cyclohexane-1-carboxamido) bicyclo[2.1.1] hexane-1-carboxylic acid]
5 | 6.48 | > 20 | CO[C@]1(CO[C@H]2O[C@@H]3O[C@@]4(C)CC[C@H]5[C@H](C)CC[C@@H]([C@H]2C)[C@@]35OO4)CC[C@@H](C(=O)O)CC1 [Compound 199, (1S,4r)-4-methoxy-4-((((3R,5aS,6R,8aS, 9R,10S,12R, 12aR)-3,6,9-trimethyldeca-hydro-12H-3,12-epoxy[1,2]dioxepino[4,3-i]isochromen-10-yl)oxy)methyl) cyclohexane-1-carboxylic acid]
6 | 0.111 | 2.84 | C[C@H]1[C@@H](OCc2ccc(OCC(=O)O)cc2Cl)O[C@@H]2O[C@@]3(C)CC[C@H]4[C@H](C)CC[C@@H]1[C@@]24OO3 [Compound 223, 2-(3-chloro-4-((((3R,5aS,6R,8aS, 9R,10S,12R, 12aR)-3,6,9-trimethyldeca-hydro-12H-3,12-epoxy[1,2]dioxepino[4,3-i]isochromen-10-yl)oxy)methyl)phenoxy)acetic acid]
7 | 0.143 | 7.33 | C[C@H]1[C@@H](OC/C=C/[C@@H]2CCC[C@H](C(=O)O)C2)O[C@@H]2O[C@@]3(C)CC[C@H]4[C@H](C)CC[C@@H]1[C@@]24OO3 [Compound 269, (1S,3R)-3-((E)-3-(((3R,5aS,6R,8aS, 9R,10S,12R, 12aR)-3,6,9-trimethyldeca-hydro-12H-3,12-epoxy[1,2]dioxepino[4,3-i]isochromen-10-yl)oxy)prop-1-en-1-yl) cyclohexane-1-carboxylic acid]
8 | 0.0924 | 19.1 | C[C@H]1[C@@H](OC/C=C/[C@]2(F)CC[C@H](C(=O)O)CC2)O[C@@H]2O[C@@]3(C)CC[C@H]4[C@H](C)CC[C@@H]1[C@@]24OO3 [Compound 271, (1S,4r)-4-fluoro-4-((E)-3-(((3R,5aS,6R,8aS, 9R,10S,12R, 12aR)-3,6,9-trimethyldeca-hydro-12H-3,12-epoxy[1,2]dioxepino[4,3-i]isochromen-10-yl)oxy)prop-1-en-1-yl) cyclohexane-1-carboxylic acid]
9 | 4.47 | 15.3 | C[C@H]1[C@@H](OC[C@]2(F)CC[C@@H](C(=O)O)CC2)O[C@@H]2O[C@@]3(C)CC[C@H]4[C@H](C)CC[C@@H]1[C@@]24OO3 [Compound 200, (1R,4s)-4-fluoro-4-((((3R,5aS,6R,8aS, 9R,10S,12R, 12aR)-3,6,9-trimethyldeca-hydro-12H-3,12-epoxy[1,2]dioxepino[4,3-i]isochromen-10-yl)oxy)methyl) cyclohexane-1-carboxylic acid]

Continued, compound first:

Row | SMILES | EC50 (HL-60) [µM] | IC50 (in vitro) [µM]
10 | C[C@H]1[C@@H](Oc2ccc(C(=O)N[C@H](C(=O)O)C(C)(C)O)cc2)O[C@@H]2O[C@@]3(C)CC[C@H]4[C@H](C)CC[C@@H]1[C@@]24OO3 [Compound 254, (S)-3-hydroxy-3-methyl-2-(4-(((3R,5aS,6R,8aS, 9R,10S,12R, 12aR)-3,6,9-trimethyldeca-hydro-12H-3,12-epoxy[1,2]dioxepino[4,3-i]isochromen-10-yl)oxy)benzamido) butanoic acid] | 4.58 | > 20
11 | C[C@H]1[C@@H](OCc2ccc(C(=O)NC34CC(C(=O)O)(C3)C4)cc2)O[C@@H]2O[C@@]3(C)CC[C@H]4[C@H](C)CC[C@@H]1[C@@]24OO3 [Compound 273, 3-(4-((((3R,5aS,6R,8aS, 9R,10S,12R, 12aR)-3,6,9-trimethyldeca-hydro-12H-3,12-epoxy[1,2]dioxepino[4,3-i]isochromen-10-yl)oxy)methyl)benzamido) bicyclo[1.1.1] pentane-1-carboxylic acid] | 2.89 | 19.4
12 | C[C@H]1[C@@H](Oc2ccc(C(=O)O)cc2Cl)O[C@@H]2O[C@@]3(C)CC[C@H]4[C@H](C)CC[C@@H]1[C@@]24OO3 [Compound 235, 3-chloro-4-(((3R,5aS,6R,8aS, 9R,10S,12R, 12aR)-3,6,9-trimethyldeca-hydro-12H-3,12-epoxy[1,2]dioxepino[4,3-i]isochromen-10-yl)oxy)benzoic acid] | 0.0375 | 15
13 | C[C@H]1[C@@H](OCc2ccc(-c3nnc(CC(=O)O)o3)cc2)O[C@@H]2O[C@@]3(C)CC[C@H]4[C@H](C)CC[C@@H]1[C@@]24OO3 [Compound 304, 2-(5-(4-((((3R,5aS,6R,8aS, 9R,10S,12R, 12aR)-3,6,9-trimethyldeca-hydro-12H-3,12-epoxy[1,2]dioxepino[4,3-i]isochromen-10-yl)oxy)methyl)phenyl)-1,3,4-oxadiazol-2-yl)acetic acid] | 0.0112 | 0.03
14 | C[C@H]1[C@@H](OCc2c(Cl)cc(C(=O)O)cc2S(C)(=O)=O)O[C@@H]2O[C@@]3(C)CC[C@H]4[C@H](C)CC[C@@H]1[C@@]24OO3 [Compound 216, 3-chloro-5-(methylsulfonyl)-4-((((3R,5aS,6R,8aS, 9R,10S,12R, 12aR)-3,6,9-trimethyldeca-hydro-12H-3,12-epoxy[1,2]dioxepino[4,3-i]isochromen-10-yl)oxy)methyl) benzoic acid] | 7.18 | > 20
15 | C[C@H]1[C@@H](OCc2ccc(C(=O)N3C[C@@H](F)C[C@H]3C(=O)O)cc2)O[C@@H]2O[C@@]3(C)CC[C@H]4[C@H](C)CC[C@@H]1[C@@]24OO3 [Compound 276, (2S,4S)-4-fluoro-1-(4-((((3R,5aS,6R,8aS, 9R,10S,12R, 12aR)-3,6,9-trimethyldeca-hydro-12H-3,12-epoxy[1,2]dioxepino[4,3-i]isochromen-10-yl)oxy)methyl)benzoyl) pyrrolidine-2-carboxylic acid] | > 20 | > 20
16 | Cc1cc(C(=O)O)cc(Cl)c1CO[C@H]1O[C@@H]2O[C@@]3(C)CC[C@H]4[C@H](C)CC[C@@H]([C@H]1C)[C@@]24OO3 [Compound 280, 3-chloro-5-methyl-4-((((3R,5aS,6R,8aS, 9R,10S,12R, 12aR)-3,6,9-trimethyldeca-hydro-12H-3,12-epoxy[1,2]dioxepino[4,3-i]isochromen-10-yl)oxy)methyl) benzoic acid] | 0.246 | 3.22
17 | C[C@H]1[C@@H](OCC(=O)N[C@H](C(=O)O)C(C)(C)C)O[C@@H]2O[C@@]3(C)CC[C@H]4[C@H](C)CC[C@@H]1[C@@]24OO3 [Compound 188, (S)-3,3-dimethyl-2-(2-(((3R,5aS,6R, 8aS,9R,10S,12R, 12aR)-3,6,9-trimethyldeca-hydro-12H-3,12-epoxy[1,2]dioxepino[4,3-i]isochromen-10-yl)oxy)acetamido) butanoic acid] | 5.06 | > 20
18 | C[C@@H]1CC[C@H]2[C@@H](C)C(OCc3ccc(C(=O)O)cc3C(F)(F)F)O[C@@H]3O[C@@]4(C)CC[C@@H]1[C@]32OO4 (stereo partly drawn) [Compound 197, 3-(trifluoromethyl)-4-((((3R,5aS,6R,8aS, 9R,12R, 12aR)-3,6,9-trimethyldeca-hydro-12H-3,12-epoxy[1,2]dioxepino[4,3-i]isochromen-10-yl)oxy)methyl) benzoic acid] | 0.066 | 5.38
19 | C[C@H]1[C@@H](OCc2ccc(N3C(=O)N(CC(=O)O)C(C)(C)C3=O)cc2)O[C@@H]2O[C@@]3(C)CC[C@H]4[C@H](C)CC[C@@H]1[C@@]24OO3 [Compound 296, 2-(5,5-dimethyl-2,4-dioxo-3-(4-((((3R,5aS,6R,8aS, 9R,10S,12R, 12aR)-3,6,9-trimethyldeca-hydro-12H-3,12-epoxy[1,2]dioxepino[4,3-i]isochromen-10-yl)oxy)methyl)phenyl)imidazolidin-1-yl)acetic acid] | 2.91 | > 20
20 | C[C@H]1[C@@H](Oc2ccc(Cn3cc(C(=O)O)nn3)c(Br)c2)O[C@@H]2O[C@@]3(C)CC[C@H]4[C@H](C)CC[C@@H]1[C@@]24OO3 [Compound 264, 1-(2-bromo-4-(((3R,5aS,6R,8aS,9R,10S,12R, 12aR)-3,6,9-trimethyldeca-hydro-12H-3,12-epoxy[1,2]dioxepino[4,3-i]isochromen-10-yl)oxy)benzyl)-1H-1,2,3-triazole-4-carboxylic acid] | 0.159 | 1.43
21 | C[C@H]1[C@@H](Oc2ccc(C3(C(=O)O)COC3)cc2)O[C@@H]2O[C@@]3(C)CC[C@H]4[C@H](C)CC[C@@H]1[C@@]24OO3 [Compound 283, 3-(4-(((3R,5aS,6R,8aS, 9R,10S,12R, 12aR)-3,6,9-trimethyldeca-hydro-12H-3,12-epoxy[1,2]dioxepino[4,3-i]isochromen-10-yl)oxy)phenyl) oxetane-3-carboxylic acid] | 0.0403 | > 20
